This passage reports Ki results from patent US20110021565A1, “PIPERIDINE DERIVATIVES AS NK3 ANTAGONISTS” (priority 2007, published 2011).

For this assay, the target named is T1, recombinant human NK3 receptor (Homo sapiens, UniProt P29371).
T1 construct: expressed in transfected cells; host or cells: HEK293 cells, transient expression; membrane preparation
T1 sequence (P29371 1-465): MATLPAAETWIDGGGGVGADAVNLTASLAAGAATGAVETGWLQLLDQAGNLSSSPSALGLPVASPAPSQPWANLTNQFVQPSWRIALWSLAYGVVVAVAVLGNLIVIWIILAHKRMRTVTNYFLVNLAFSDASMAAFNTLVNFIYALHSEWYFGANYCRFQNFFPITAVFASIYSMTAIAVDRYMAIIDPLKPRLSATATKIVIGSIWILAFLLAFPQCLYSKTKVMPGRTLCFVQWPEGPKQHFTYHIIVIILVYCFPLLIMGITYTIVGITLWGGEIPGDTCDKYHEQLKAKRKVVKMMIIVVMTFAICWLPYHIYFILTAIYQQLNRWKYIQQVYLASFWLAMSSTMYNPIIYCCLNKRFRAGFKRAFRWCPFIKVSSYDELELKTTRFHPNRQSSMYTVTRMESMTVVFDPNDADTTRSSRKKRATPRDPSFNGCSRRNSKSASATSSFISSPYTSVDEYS
Put plainly: [3H]SR142801 competition binding assay. The gist of the method: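 Ki derived by Cheng-Prusoff from Hill-fitted IC50 curves, duplicates, 10 μM SB222200 defining nonspecific binding. Radioligand used at KD concentration against compound at 0.0003-10 μM; transiently transfected HEK293 membranes, 5 μg/well, 75 min room temperature, Tris-HCl/MnCl2/phosphoramidon/BSA pH 7.4. Filter-bound counts read by scintillation.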

The mark [1] stands for this setting: [3H]SR142801, membranes of HEK293 cells transiently expressing recombinant human NK3 receptor, read-out: hNK3 Ki.
Where [2] appears, read: representative compounds, [3H]SR142801, HEK293 membranes, human NK3 receptor, read-out: Ki NK3 h.

Structures are written as SMILES. Where two headings read alike, the source gives them in different places.

As usually defined, the Ki is the dissociation constant of the complex between target and ligand, obtained from inhibition or displacement. Turning to `CC(CCN1CCC(N2CCCC2=O)CC1)(C(=O)NCc1ccc(Cl)c(Cl)c1)c1ccc(Cl)c(Cl)c1` (stereo not drawn) [Example 83, N-(3,4-Dichloro-benzyl)-2-(3,4-dichloro-phenyl)-2-methyl-4-[4-(2-oxo-pyrrolidin-1-yl)-piperidin-1-yl]-butyramide], the Ki worked out at 2.3 nM under setting [1] and 2.3 nM under setting [2].
For the molecule `CN(Cc1ccc(Cl)cc1)C(=O)C(C)(CCN1CCC(N2CCCC2=O)CC1)c1ccc(Cl)c(Cl)c1` (stereo not drawn) [Example 84, N-(4-Chloro-benzyl)-2-(3,4-dichloro-phenyl)-2,N-dimethyl-4-[4-(2-oxo-pyrrolidin 1-yl)-piperidin-1-yl]-butyramide], the Ki is, setting by setting: under setting [1], 2.1 nM; under setting [2], 2.1 nM.
`CN(Cc1ccc(Cl)c(C(F)(F)F)c1)C(=O)C(C)(CCN1CCC(N2CCCC2=O)CC1)c1ccc(Cl)c(Cl)c1` (stereo not drawn) [Example 85, N-(4-Chloro-3-trifluoromethyl-benzyl)-2-(3,4-dichloro-phenyl)-2,N-dimethyl-4-[4-(2-oxo-pyrrolidin-1-yl)-piperidin-1-yl]-butyramide]: the Ki under setting [1] amounted to 1.4 nM and the Ki under setting [2] turned out to be 1.4 nM.
On to `CN(Cc1ccc(F)c(C(F)(F)F)c1)C(=O)C(C)(CCN1CCC(N2CCCC2=O)CC1)c1ccc(Cl)c(Cl)c1` (stereo not drawn) [Example 86, 2-(3,4-Dichlorophenyl)-N-(4-fluoro-3-trifluoromethyl-benzyl)-2,N-dimethyl-4-[4-(2-oxo-pyrrolidin-1-yl)-piperidin-1-yl]-butyramide], for which the Ki worked out at 1.4 nM under setting [1] and 1.4 nM under setting [2].
Consider `CN(Cc1cccc(Cl)c1)C(=O)C(C)(CCN1CCC(N2CCCC2=O)CC1)c1ccc(Cl)c(Cl)c1` (stereo not drawn) [Example 87, N-(3-Chloro-benzyl)-2-(3,4-dichloro-phenyl)-2,N-dimethyl-4-[4-(2-oxo-pyrrolidin-1-yl)-piperidin-1-yl]-butyramide], for which the inhibition constant Ki by setting is: under setting [1], 4.6 nM; under setting [2], 4.6 nM.
As for `CN(Cc1ccc(C(F)(F)F)cc1)C(=O)C(C)(CCN1CCC(N2CCCC2=O)CC1)c1ccc(Cl)c(Cl)c1` (stereo not drawn) [Example 88, 2-(3,4-Dichloro-phenyl)-2,N-dimethyl-4-[4-(2-oxo-pyrrolidin-1-yl)-piperidin-1-yl]-N-(4-trifluoromethyl-benzyl)-butyramide], the Ki runs as follows: under setting [1], 1.8 nM; under setting [2], 1.8 nM.
As for `Cc1ccc(CN(C)C(=O)C(C)(CCN2CCC(N3CCCC3=O)CC2)c2ccc(Cl)c(Cl)c2)cc1` (stereo not drawn) [Example 89, 2-(3,4-Dichloro-phenyl)-2,N-dimethyl-N-(4-methyl-benzyl)-4-[4-(2-oxo-pyrrolidin-1-yl)-piperidin-1-yl]-butyramide], the Ki under setting [1] was 5.3 nM and the Ki under setting [2] came out at 5.3 nM.
Consider `CN(Cc1ccccc1Cl)C(=O)C(C)(CCN1CCC(N2CCCC2=O)CC1)c1ccc(Cl)c(Cl)c1` (stereo not drawn) [Example 90, N-(2-Chloro-benzyl)-2-(3,4-dichloro-phenyl)-2,N-dimethyl-4-[4-(2-oxo-pyrrolidin-1-yl)-piperidin-1-yl]-butyramide], for which the Ki was found to be 2.5 nM under setting [1] and 2.5 nM under setting [2].
As to `CC(NC(=O)C(C)(CCN1CCC(N2CCCC2=O)CC1)c1ccc(Cl)c(Cl)c1)c1ccccc1` (stereo not drawn) [Example 91, 2-(3,4-Dichloro-phenyl)-2-methyl-4-[4-(2-oxo-pyrrolidin-1-yl)-piperidin-1-yl]-N-(1-phenyl-ethyl)-butyramide], the Ki under setting [1] was determined as 51.2 nM.
In the case of `CC(C)(NC(=O)C(C)(CCN1CCC(N2CCCC2=O)CC1)c1ccc(Cl)c(Cl)c1)c1ccccc1` (stereo not drawn) [Example 92, 2-(3,4-Dichloro-phenyl)-2-methyl-N-(1-methyl-1-phenyl-ethyl)-4-[4-(2-oxo-pyrrolidin-1-yl)-piperidin-1-yl]-butyramide], under setting [1], the Ki was 991 nM.
Consider `CC(CCN1CCC(N2CCCC2=O)CC1)(C(=O)NC1(c2ccccc2)CC1)c1ccc(Cl)c(Cl)c1` (stereo not drawn) [Example 93, 2-(3,4-Dichlorophenyl)-2-methyl-4-[4-(2-oxo-pyrrolidin-1-yl)-piperidin-1-yl]-N-(1-phenyl-cyclopropyl)-butyramide], for which the inhibitory constant (Ki) under setting [1] was found to be 184 nM.
In the case of `CC(CCN1CCC(N2CCCC2=O)CC1)(C(=O)NC(c1ccccc1)C(F)(F)F)c1ccc(Cl)c(Cl)c1` (stereo not drawn) [Example 95, 2-(3,4-Dichloro-phenyl)-2-methyl-4-[4-(2-oxo-pyrrolidin-1-yl)-piperidin-1-yl]-N-(2,2,2-trifluoro-1-phenyl-ethyl)-butyramide], the Ki is, setting by setting: under setting [1], 4.7 nM; under setting [2], 4.7 nM.
As for `CC(CCN1CCC(N2CCCC2=O)CC1)(C(=O)NC(c1ccc(F)cc1)C(F)(F)F)c1ccc(Cl)c(Cl)c1` (stereo not drawn) [Example 96, 2-(3,4-Dichloro-phenyl)-2-methyl-4-[4-(2-oxo-pyrrolidin-1-yl)-piperidin-1-yl]-N-[2,2,2-trifluoro-1-(4-fluoro-phenyl)-ethyl]-butyramide], the Ki reads like this: under setting [1], 7.2 nM; under setting [2], 7.2 nM.
On to `CC(CCN1CCC(N2CCCC2=O)CC1)(C(=O)NC(c1ccc(C(F)(F)F)cc1)C(F)(F)F)c1ccc(Cl)c(Cl)c1` (stereo not drawn) [Example 97, 2-(3,4-Dichloro-phenyl)-2-methyl-4-[4-(2-oxo-pyrrolidin-1-yl)-piperidin-1-yl]-N-[2,2,2-trifluoro-1-(4-trifluoromethyl-phenyl)-ethyl]-butyramide], for which the Ki under setting [1] came out at 8.1 nM.
Consider `CC(=O)N(C)C1CCN(CCC(C)(C(=O)NCc2ccc(C(F)(F)F)c(F)c2)c2ccc(Cl)c(Cl)c2)CC1` (stereo not drawn) [Example 99, 4-[4-(Acetyl-methyl-amino)-piperidin-1-yl]-2-(3,4-dichloro-phenyl)-N-(3-fluoro-4-trifluoromethyl-benzyl)-2-methyl-butyramide], for which the Ki runs as follows: under setting [1], 5.8 nM; under setting [2], 5.8 nM.
Turning to `CC(=O)N(C)C1CCN(CCC(C)(C(=O)N(C)Cc2ccc(Cl)c(Cl)c2)c2ccc(Cl)c(Cl)c2)CC1` (stereo not drawn) [Example 100, 4-[4-(Acetyl-methyl-amino)-piperidin-1-yl]-N-(3,4-dichloro-benzyl)-2-(3,4-dichloro-phenyl)-2,N-dimethyl-butyramide], the Ki came to 3 nM under setting [1] and 3 nM under setting [2].
For `CC(=O)N(C)C1CCN(CCC(C)(C(=O)NCc2ccc(Cl)c(Cl)c2)c2ccc(Cl)c(Cl)c2)CC1` (stereo not drawn) [Example 101, 4-[4-(Acetyl-methyl-amino)-piperidin-1-yl]-N-(3,4-dichloro-benzyl)-2-(3,4-dichloro-phenyl)-2-methyl-butyramide], the Ki by setting is: under setting [1], 6.8 nM; under setting [2], 6.8 nM.
For `CC(=O)N(C)C1CCN(CCC(C)(C(=O)N(C)Cc2ccc(Cl)cc2)c2ccc(Cl)c(Cl)c2)CC1` (stereo not drawn) [Example 102, 4-[4-(Acetyl-methyl-amino)-piperidin-1-yl]-N-(4-chloro-benzyl)-2-(3,4-dichloro-phenyl)-2,N-dimethyl-butyramide], the Ki is, setting by setting: under setting [1], 5.1 nM; under setting [2], 5.1 nM.
Turning to `CC(=O)N(C)C1CCN(CCC(C)(C(=O)N(C)Cc2ccc(Cl)c(C(F)(F)F)c2)c2ccc(Cl)c(Cl)c2)CC1` (stereo not drawn) [Example 103, 4-[4-(Acetyl-methyl-amino)-piperidin-1-yl]-N-(4-chloro-3-trifluoromethyl-benzyl)-2-(3,4-dichloro-phenyl)-2,N-dimethyl-butyramide], the Ki under setting [1] came to 2.2 nM and the Ki under setting [2] was found to be 2.2 nM.
On to `CC(=O)N(C)C1CCN(CCC(C)(C(=O)N(C)Cc2ccc(F)c(C(F)(F)F)c2)c2ccc(Cl)c(Cl)c2)CC1` (stereo not drawn) [Example 104, 4-[4-(Acetyl-methyl-amino)-piperidin-1-yl]-2-(3,4-dichloro-phenyl)-N-(4-fluoro-3-trifluoromethyl-benzyl)-2,N-dimethyl-butyramide], for which the Ki stood at 2.3 nM under setting [1] and 2.3 nM under setting [2].
`CC(=O)N(C)C1CCN(CCC(C)(C(=O)N(C)Cc2cccc(Cl)c2)c2ccc(Cl)c(Cl)c2)CC1` (stereo not drawn) [Example 105, 4-[4-(Acetyl-methyl-amino)-piperidin-1-yl]-N-(3-chloro-benzyl)-2-(3,4-dichloro-phenyl)-2,N-dimethyl-butyramide]: the Ki is 8.7 nM under setting [1] and 8.7 nM under setting [2].
Turning to `CC(=O)N(C)C1CCN(CCC(C)(C(=O)N(C)Cc2ccc(C(F)(F)F)cc2)c2ccc(Cl)c(Cl)c2)CC1` (stereo not drawn) [Example 106, 4-[4-(Acetyl-methyl-amino)-piperidin-1-yl]-2-(3,4-dichloro-phenyl)-2,N-dimethyl-N-(4-trifluoromethyl-benzyl)-butyramide], the Ki was determined as 5.1 nM under setting [1] and 5.1 nM under setting [2].
For the molecule `CC(=O)N(C)C1CCN(CCC(C)(C(=O)N(C)Cc2ccc(C)cc2)c2ccc(Cl)c(Cl)c2)CC1` (stereo not drawn) [Example 107, 4-[4-(Acetyl-methyl-amino)-piperidin-1-yl]-2-(3,4-dichloro-phenyl)-2,N-dimethyl-N-(4-methyl-benzyl)-butyramide], the inhibition constant Ki under setting [1] came to 10.6 nM.
As for `CC(=O)N(C)C1CCN(CCC(C)(C(=O)N(C)Cc2ccccc2Cl)c2ccc(Cl)c(Cl)c2)CC1` (stereo not drawn) [Example 108, 4-[4-(Acetyl-methyl-amino)-piperidin-1-yl]-N-(2-chloro-benzyl)-2-(3,4-dichloro-phenyl)-2,N-dimethyl-butyramide], under setting [1], the Ki turned out to be 12 nM.
